{"source": "patent US20240325398A1", "about": "“COMBINATION THERAPIES” (Infinity Pharmaceuticals, Inc., priority 2014, published 2024)", "key": {"[1]": {"system": "Mino", "experiment": "Combination study, ATPLite 72 h, dose matrix (Synergy Score, CI50)", "details": "combination with Compound 1"}, "[2]": {"system": "RPMI-8226", "experiment": "Combination study, ATPLite 72 h, dose matrix (Synergy Score, CI50)", "details": "combination with Compound 1", "description": "(§1) Cells are thawed from a liquid nitrogen preserved state. Once cells have been expanded and divide at their expected doubling times, screening begins. Cells are seeded in growth media in either black 1536-well or 384-well tissue culture treated plates. Cells are then equilibrated in assay plates via centrifugation and placed in incubators attached to the Dosing Modules at 37° C. for 24 hours before treatment. […] These Tzero (To) plates are read using ultra-sensitive luminescence on Envision plate readers (Perkin Elmer). Treated assay plates are incubated with compound for 72 hours. After 72 hours, plates are developed for endpoint analysis using ATPLite. All data points are collected via automated processes, quality controlled and analyzed using Zalicus software.\n(§2) where T is treated cell count and V is untreated (vehicle) cell count (at 72 hours). I ranges from 0% (when T=V) to 100% (when T=0). […] The measure of effect in the experiment can be the inhibition of cellular response relative to the untreated level (vehicle alone). […] The inhibition ranges from 0% at the untreated level to 100% when T=0. Inhibition levels are negative for agents that actually increase levels. Other effect measures, such as an activity ratio r=T/V may be more appropriate for some assays. When activity ratios (e.g, fold increase over stimulated control) are being used, the effect can be measured using an induction 1=ln(T/V). With this definition, all effect expressions are the same as for inhibition.\n(§3) Growth Inhibition (GI) is used as a measure of cell viability. […] A GI reading of 100% represents complete growth inhibition—T72 compound-treated and T0 vehicle signals are matched. […] A GI reading of 200% represents complete death of all cells in the culture well. Compounds reaching an activity plateau of GI 200% are considered cytotoxic. GI is calculated by applying the following test and equation:\n(§4) Combination analysis data were collected in a 6×6 dose matrix. Synergy is calculated by comparing a combination's response to those of its single compound, against the drug-with-itself dose-additive reference model. Deviations from dose additivity may be assessed visually on an isobologram or numerically with a Combination Index (CI). […] Additive effect is CI=1.0. […] Antagonistic effect is CI>1.0.\n(§5) To measure combination effects in excess of Loewe additivity, a scalar measure to characterize the strength of synergistic interaction termed the Synergy Score is devised. The Synergy Score is calculated as:\n(§6) The fractional inhibition for each component agent and combination point in the matrix is calculated relative to the median of all vehicle-treated control wells. The Synergy Score equation integrates the experimentally-observed activity volume at each point in the matrix in excess of a model surface numerically derived from the activity of the component agents using the Loewe model for additivity. Additional terms in the Synergy Score equation (above) are used to normalize for various dilution factors used for individual agents and to allow for comparison of synergy scores across an entire experiment. The inclusion of positive inhibition gating or an Idata multiplier removes noise near the zero effect level, and biases results for synergistic interactions at that occur at high activity levels.\n(§7) Loewe Volume (Loewe Vol) is used to assess the overall magnitude of the combination interaction in excess of the Loewe additivity model. Loewe Volume is particularly useful when distinguishing synergistic increases in a phenotypic activity (positive Loewe Volume) versus synergistic antagonisms (negative Loewe Volume). […] This model defines additivity as a non-synergistic combination interaction where the combination dose matrix surface should be indistinguishable from either drug crossed with itself."}, "[3]": {"experiment": "Combination study, ATPLite 72 h, dose matrix (Synergy Score, CI50)", "details": "combination with Compound 1; OPM-2", "description": "as §1, §2, §3, §4, §5, §6, §7"}, "[4]": {"system": "OMP-2", "experiment": "Combination study, ATPLite 72 h, dose matrix (Synergy Score, CI50)", "details": "combination with Compound 1; OPM-2", "description": "as §1, §2, §3, §4, §5, §6, §7"}, "[5]": {"system": "TMD8", "experiment": "Combination study, ATPLite 72 h, dose matrix (Synergy Score, CI50)", "details": "TMD8"}, "[6]": {"system": "SUDHL6", "experiment": "Combination study of Example 1 (data not shown)", "format": "cell-based", "details": "combination with Compound 1, SUDHL6 cell line", "excerpt": "The method is described as follows.\nAdditive effect is CI=1.0. […] Antagonistic effect is CI>1.0."}, "[7]": {"system": "SU-DHL-6-epst", "experiment": "Combination study of Compound 1 or CAL-101 and a second therapeutic agent (Synergy Score, CI50)", "format": "cell-based"}, "[8]": {"system": "ibrutinib-resistant SU-DHL-4 clones", "experiment": "CTG (Cell Titer Glo) IC50, ibrutinib-resistant clones", "format": "cell-based", "details": "ibrutinib clones 2B.3, 5C.3, 10B.3, 11D.3, 11G.3", "protocol": "The DMSO stock for each compound was diluted to 5 mM or 1 mM with DMSO. A 1:1000 dilution was performed into the plated cells (10 uL) for a final of 1 uM or 5 uM (final DMSO […]). Cells were counted 2 times per week and cell densities were adjusted back to 2.5×10^5 c/mL as needed. Media/Compound was replenished as needed and Media/Compound was replaced 1× per week. Compound treatment lasted for 28 days. Compound was washed out for 1 week and cells were subsequently used in assays to determine resistance after 4 weeks of treatment.\nThe cell line pool was treated with compound for an additional 28 days prior to subcloning. Altogether, the cell line pool was under selective pressure for a total of 8 weeks.\nCell lines were subcloned at 3, 1, and 0.3 cells per well (cpw). 1:10 of conditioned medium (CM) was included in medium in addition to corresponding DMSO control or compound. During subcloning optimization experiments, the SU-DHL-4 cell line could only be subcloned in the presence of 1:10 conditioned medium. Conditioned medium (CM) was collected 4 days after splitting the parent cell line and when cells were approximately 90% confluent. Cells were spun down and the supernatant (CM) was collected down. […]\nAll cell lines subcloned grew out. […] Once expanded in a 24 well plate, the 12 clones per cell line were evaluated for viability by flow using the Dead_Live kit (Invitrogen #L23101)."}, "[9]": {"experiment": "Tolerability and pharmacokinetics of Compound 1 with dexamethasone in non-tumor bearing mice", "format": "in vivo", "protocol": "The effects of a combination of Compound 1 and dexamethasone were assessed in vivo in non-tumor bearing mice. Dexamethasone is an inducer of CYP2B6 and CYP3A4 and thus might be expected to decrease exposure of Compound 1. Tolerability of the combination was assessed in non-tumor bearing CD17.SCID female mice. Treatment was carried out for 14 days using the following treatment groups: 1) Vehicle 1 (5% NMP+95% PEG400)+Vehicle 2 (saline); 2) Compound 1 (50 mg/kg, QD, PO)+Vehicle 2; 3) Vehicle 1+Dex 1 (5 mg/kg, Q3D, IP); 4) Compound 1+Dex 1; 5) Vehicle 1+Dex 2 (1 mg/kg, Q3D, IP); 6) Compound 1+Dex 2. PEG400 refers to polyethylene glycol-400. NMP refers to N-methyl-2-pyrrolidone. Dex refers to dexamethasone. Q3D refers to administration every third day. PO refers to oral administration. IP refers to intraperitoneal administration. Plasma samples were collected on day 14 at the trough, 1, 2, 4, and 6 h post dose for pharmacokinetic analysis."}, "[10]": {"details": "combination with CAL-101, Example 2"}, "[11]": {"details": "combination with Cmpd 1, Example 2"}, "[12]": {"details": "combination with Compound 1, 72 h"}}, "data": [{"compound": "C[C@@H]1C[C@H]2[C@@H]3CCC4=CC(=O)C=C[C@]4(C)[C@@]3(F)[C@@H](O)C[C@]2(C)[C@@]1(O)C(=O)CO", "note": "[dexamethasone, (8S,9R,10S,11S,13S,14S,16R,17R)-9-Fluoro-11,17-dihydroxy-17-(2-hydroxyacetyl)-10,13,16-trimethyl-6,7,8,9,10,11,12,13,14,15,16,17-dodecahydro-3H-cyclopenta[a]phenanthren-3-one]", "values": [{"measurement": "CI50 growth inhibition", "setting": "[1]", "value": "S (S=0.01 to <0.5)"}, {"measurement": "CI50 inhibition", "setting": "[1]", "value": "S (S=0.01 to <0.5)"}, {"measurement": "Synergy Score growth inhibition", "setting": "[1]", "value": "A3 (A3=>3)"}, {"measurement": "Synergy Score inhibition", "setting": "[1]", "value": "A2 (A2=1 to <3)"}, {"measurement": "CI50 growth inhibition", "setting": "[2]", "value": "S (S=0.01 to <0.5)"}, {"measurement": "CI50 inhibition", "setting": "[2]", "value": "U (U=0.7 to <1)"}, {"measurement": "Synergy Score growth inhibition", "setting": "[2]", "value": "A3 (A3=>3)"}, {"measurement": "Synergy Score inhibition", "setting": "[2]", "value": "A2 (A2=1 to <3)"}, {"measurement": "CI50 growth inhibition", "setting": "[3]", "value": "S (S=0.01 to <0.5)"}, {"measurement": "CI50 inhibition", "setting": "[4]", "value": "U (U=0.7 to <1)"}, {"measurement": "Synergy Score growth inhibition", "setting": "[4]", "value": "A2 (A2=1 to <3)"}, {"measurement": "Synergy Score inhibition", "setting": "[4]", "value": "A1 (A1=0.0001 to <1)"}, {"measurement": "CI50 growth inhibition", "setting": "[5]; [10]", "value": "S (S=0.01 to <0.5)"}, {"measurement": "CI50 inhibition", "setting": "[5]; [10]", "value": "S (S=0.01 to <0.5)"}, {"measurement": "Synergy Score growth inhibition", "setting": "[5]; [10]", "value": "A3 (A3=>3)"}, {"measurement": "Synergy Score inhibition", "setting": "[5]; [10]", "value": "A3 (A3=>3)"}, {"measurement": "CI50 growth inhibition", "setting": "[5]; [11]", "value": "T (T=0.5 to <0.7)"}, {"measurement": "CI50 inhibition", "setting": "[5]; [11]", "value": "S (S=0.01 to <0.5)"}, {"measurement": "Synergy Score growth inhibition", "setting": "[5]; [11]", "value": "A3 (A3=>3)"}, {"measurement": "Synergy Score inhibition", "setting": "[5]; [11]", "value": "A3 (A3=>3)"}, {"measurement": "CI50 growth inhibition", "setting": "[5]; [12]", "value": "U (U=0.7 to <1)"}, {"measurement": "CI50 inhibition", "setting": "[5]; [12]", "value": "S (S=0.01 to <0.5)"}, {"measurement": "Synergy Score growth inhibition", "setting": "[5]; [12]", "value": "A3 (A3=>3)"}, {"measurement": "Synergy Score inhibition", "setting": "[5]; [12]", "value": "A3 (A3=>3)"}, {"measurement": "synergy of the combination", "setting": "[6]", "value": "significant synergy"}]}, {"compound": "C[C@H](Nc1ncnc2[nH]cnc12)c1cc2cccc(Cl)c2c(=O)n1-c1ccccc1", "note": "[Compound 1, (S)-3-(1-((9H-purin-6-yl)amino)ethyl)-8-chloro-2-phenylisoquinolin-1(2H)-one]", "values": [{"measurement": "CI50 growth inhibition", "setting": "[7]; combination with Dexamethasone", "value": "T (T=0.5 to <0.7)"}, {"measurement": "CI50 inhibition", "setting": "[7]; combination with Dexamethasone", "value": "T (T=0.5 to <0.7)"}, {"measurement": "Synergy Score growth inhibition", "setting": "[7]; combination with Dexamethasone", "value": "A3 (A3=>3)"}, {"measurement": "Synergy Score inhibition", "setting": "[7]; combination with Dexamethasone", "value": "A2 (A2=1 to <3)"}, {"measurement": "CI50 growth inhibition", "setting": "[7]; combination with LEE011", "value": "S (S=0.01 to <0.5)"}, {"measurement": "Synergy Score growth inhibition", "setting": "[7]; combination with LEE011", "value": "A2 (A2=1 to <3)"}, {"measurement": "Synergy Score inhibition", "setting": "[7]; combination with LEE011", "value": "A1 (A1=0.0001 to <1)"}, {"measurement": "CI50 growth inhibition", "setting": "[7]; combination with PCI-32765", "value": "S (S=0.01 to <0.5)"}, {"measurement": "CI50 inhibition", "setting": "[7]; combination with PCI-32765", "value": "S (S=0.01 to <0.5)"}, {"measurement": "Synergy Score growth inhibition", "setting": "[7]; combination with PCI-32765", "value": "A3 (A3=>3)"}, {"measurement": "Synergy Score inhibition", "setting": "[7]; combination with PCI-32765", "value": "A2 (A2=1 to <3)"}, {"measurement": "CI50 growth inhibition", "setting": "[7]; combination with PD-0332991", "value": "S (S=0.01 to <0.5)"}, {"measurement": "CI50 inhibition", "setting": "[7]; combination with PD-0332991", "value": "S (S=0.01 to <0.5)"}, {"measurement": "Synergy Score growth inhibition", "setting": "[7]; combination with PD-0332991", "value": "A2 (A2=1 to <3)"}, {"measurement": "Synergy Score inhibition", "setting": "[7]; combination with PD-0332991", "value": "A2 (A2=1 to <3)"}, {"measurement": "cross-resistance of ibrutinib-resistant clones", "setting": "[8]", "value": "no cross-resistance"}, {"measurement": "Compound 1 plasma exposure", "setting": "[9]; 50 mg/kg Compound 1 PO in combination with dexamethasone 5 mg/kg Q3D, versus Compound 1 alone", "value": "decrease"}, {"measurement": "mean plasma concentration of Compound 1", "setting": "[9]; 50 mg/kg Compound 1 plus 1 mg/kg dexamethasone (Q3D) versus 50 mg/kg Compound 1 alone", "value": "relatively similar"}, {"measurement": "decrease of Compound 1 plasma exposure", "setting": "[9]; co-administered with higher dose of dexamethasone, 5 mg/kg", "value": "about 30%"}, {"measurement": "degree of Compound 1 exposure", "setting": "[9]; single agent versus combination with dexamethasone 1 mg/kg", "value": "similar"}]}]}
